From the kinase profiling compilation of Christmann-Franck et al. (2016)

Tests used:
Experiment in all cases: KINOMEscan competition binding
Settings in all cases: compound 2.0 µM
[1] = test system: EGFR (human), P00533 [T790M/L858R]
[2] = target: TEK (human) (UniProt Q02763)
[3] = target: JAK2 JH1 catalytic (human) (UniProt O60674)
[4] = target: MARK4 (human) (UniProt Q96L34)
[5] = test system: FGFR3 (human), P22607 [G697C]
[6] = test system: EGFR (human), P00533 [A750P; 747-749 del]
[7] = target: STK33 (human) (UniProt Q9BYT3)
[8] = target: LIMK2 (human) (UniProt P53671)
[9] = target: EPHB4 (human) (UniProt P54760)
[10] = target: CSNK2A2 (human) (UniProt P19784)
[11] = target: JAK1 JH1 catalytic (human) (UniProt P23458)
[12] = target: MYLK2 (human) (UniProt Q9H1R3)
[13] = target: PDGFRA (human) (UniProt P16234)
[14] = target: MAP3K7 (human) (UniProt O43318)
[15] = target: CSNK1G3 (human) (UniProt Q9Y6M4)
[16] = target: MAP3K5 (human) (UniProt Q99683)
[17] = target: PIP4K2C (human) (UniProt Q8TBX8)
[18] = target: FGFR1 (human) (UniProt P11362)
[19] = test system: FLT3 (human), P36888 [D835H]
[20] = target: FGFR4 (human) (UniProt P22455)
[21] = target: ERBB2 (human) (UniProt P04626)
[22] = target: PRKCQ (human) (UniProt Q04759)
[23] = target: MST1R (human) (UniProt Q04912)
[24] = test system: CPK1 (P.falciparum)
[25] = target: NEK5 (human) (UniProt Q6P3R8)
[26] = target: CAMK2G (human) (UniProt Q13555)
[27] = target: GSK3A (human) (UniProt P49840)
[28] = target: STK38L (human) (UniProt Q9Y2H1)
[29] = target: PIK3C2B (human) (UniProt O00750)
[30] = target: LTK (human) (UniProt P29376)
[31] = target: MAP2K5 (human) (UniProt Q13163)
[32] = target: ACVR2A (human) (UniProt P27037)
[33] = test system: EGFR (human), P00533 [G719C]
[34] = target: BRSK2 (human) (UniProt Q8IWQ3)
[35] = target: TAOK1 (human) (UniProt Q7L7X3)
[36] = target: CaMK1 (human) (UniProt Q14012)
[37] = target: MAPK10 (human) (UniProt P53779)
[38] = target: INSRR (human) (UniProt P14616)
[39] = target: EPHA4 (human) (UniProt P54764)
[40] = target: STK17B (human) (UniProt O94768)
[41] = target: MAP3K15 (human) (UniProt Q6ZN16)
[42] = target: PIM3 (human) (UniProt Q86V86)
[43] = target: EPHA7 (human) (UniProt Q15375)

JAK2 JH1 catalytic (human), sequence (O60674 whole entry, looked up): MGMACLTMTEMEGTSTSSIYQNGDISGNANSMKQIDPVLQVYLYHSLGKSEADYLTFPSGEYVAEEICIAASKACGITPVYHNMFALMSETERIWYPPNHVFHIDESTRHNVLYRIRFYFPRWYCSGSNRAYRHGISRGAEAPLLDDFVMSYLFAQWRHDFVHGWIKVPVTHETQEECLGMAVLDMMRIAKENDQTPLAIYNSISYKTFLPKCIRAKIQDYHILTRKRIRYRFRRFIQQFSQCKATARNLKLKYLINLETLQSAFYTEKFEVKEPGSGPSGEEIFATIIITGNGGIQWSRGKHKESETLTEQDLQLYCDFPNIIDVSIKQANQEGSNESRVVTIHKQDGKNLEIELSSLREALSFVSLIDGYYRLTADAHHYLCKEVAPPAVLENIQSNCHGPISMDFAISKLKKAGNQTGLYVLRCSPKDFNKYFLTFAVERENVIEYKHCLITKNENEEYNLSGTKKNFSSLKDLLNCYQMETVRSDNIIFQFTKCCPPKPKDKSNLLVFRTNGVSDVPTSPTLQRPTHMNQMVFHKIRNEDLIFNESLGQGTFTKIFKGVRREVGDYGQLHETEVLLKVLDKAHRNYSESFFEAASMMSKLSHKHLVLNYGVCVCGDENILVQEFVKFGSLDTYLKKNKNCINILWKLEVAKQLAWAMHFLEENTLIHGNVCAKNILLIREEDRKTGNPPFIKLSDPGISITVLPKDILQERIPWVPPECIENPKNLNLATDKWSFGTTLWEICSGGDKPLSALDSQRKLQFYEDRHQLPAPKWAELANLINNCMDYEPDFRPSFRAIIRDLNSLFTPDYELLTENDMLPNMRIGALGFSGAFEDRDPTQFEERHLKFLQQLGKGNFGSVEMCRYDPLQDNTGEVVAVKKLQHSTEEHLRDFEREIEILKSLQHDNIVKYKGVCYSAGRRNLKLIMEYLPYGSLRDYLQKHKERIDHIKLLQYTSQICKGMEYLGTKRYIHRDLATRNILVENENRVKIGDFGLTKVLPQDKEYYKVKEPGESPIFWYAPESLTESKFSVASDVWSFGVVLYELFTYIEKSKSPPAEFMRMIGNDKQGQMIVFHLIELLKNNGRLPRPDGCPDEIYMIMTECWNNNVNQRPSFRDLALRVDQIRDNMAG
STK33 (human), sequence (Q9BYT3 whole entry, looked up): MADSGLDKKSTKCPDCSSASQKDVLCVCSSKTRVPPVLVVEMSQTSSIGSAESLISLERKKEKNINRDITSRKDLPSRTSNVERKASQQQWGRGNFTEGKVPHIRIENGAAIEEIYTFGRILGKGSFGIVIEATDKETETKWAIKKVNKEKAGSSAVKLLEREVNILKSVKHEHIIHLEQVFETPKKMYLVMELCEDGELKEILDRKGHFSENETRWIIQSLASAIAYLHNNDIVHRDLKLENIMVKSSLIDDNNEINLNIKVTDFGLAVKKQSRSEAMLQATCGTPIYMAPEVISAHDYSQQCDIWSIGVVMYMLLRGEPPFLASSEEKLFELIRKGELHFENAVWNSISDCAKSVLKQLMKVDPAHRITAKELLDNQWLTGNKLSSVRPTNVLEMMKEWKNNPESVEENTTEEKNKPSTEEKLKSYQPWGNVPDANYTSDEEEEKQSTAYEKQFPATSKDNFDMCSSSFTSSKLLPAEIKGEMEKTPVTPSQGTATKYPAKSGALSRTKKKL
EPHB4 (human), sequence (P54760 whole entry, looked up): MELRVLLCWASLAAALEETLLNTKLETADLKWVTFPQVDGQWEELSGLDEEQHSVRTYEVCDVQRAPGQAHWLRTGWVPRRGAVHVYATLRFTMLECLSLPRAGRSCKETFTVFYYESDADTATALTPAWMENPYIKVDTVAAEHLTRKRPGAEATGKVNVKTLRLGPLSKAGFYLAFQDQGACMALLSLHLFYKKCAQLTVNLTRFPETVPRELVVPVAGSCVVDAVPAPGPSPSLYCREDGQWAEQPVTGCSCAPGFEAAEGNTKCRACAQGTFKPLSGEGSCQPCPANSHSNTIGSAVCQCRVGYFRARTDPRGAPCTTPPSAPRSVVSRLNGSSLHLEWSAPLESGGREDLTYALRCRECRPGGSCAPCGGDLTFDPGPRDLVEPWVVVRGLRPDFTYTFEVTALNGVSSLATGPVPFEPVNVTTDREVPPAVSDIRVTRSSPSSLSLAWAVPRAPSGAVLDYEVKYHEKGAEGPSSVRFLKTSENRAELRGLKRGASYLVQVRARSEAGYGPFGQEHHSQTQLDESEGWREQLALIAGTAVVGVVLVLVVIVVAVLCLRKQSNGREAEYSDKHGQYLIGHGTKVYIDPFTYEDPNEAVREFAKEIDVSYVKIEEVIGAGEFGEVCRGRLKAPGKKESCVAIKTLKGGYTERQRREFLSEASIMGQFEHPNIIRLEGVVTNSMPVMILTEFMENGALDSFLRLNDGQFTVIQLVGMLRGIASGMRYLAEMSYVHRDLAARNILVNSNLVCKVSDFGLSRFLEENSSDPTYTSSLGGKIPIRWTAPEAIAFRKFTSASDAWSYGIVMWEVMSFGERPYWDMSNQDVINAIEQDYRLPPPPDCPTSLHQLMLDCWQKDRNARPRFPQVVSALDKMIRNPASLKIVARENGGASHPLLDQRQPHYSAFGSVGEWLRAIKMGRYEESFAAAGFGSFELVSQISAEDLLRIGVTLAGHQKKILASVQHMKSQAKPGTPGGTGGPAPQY
ACVR2A (human), sequence (P27037 whole entry, looked up): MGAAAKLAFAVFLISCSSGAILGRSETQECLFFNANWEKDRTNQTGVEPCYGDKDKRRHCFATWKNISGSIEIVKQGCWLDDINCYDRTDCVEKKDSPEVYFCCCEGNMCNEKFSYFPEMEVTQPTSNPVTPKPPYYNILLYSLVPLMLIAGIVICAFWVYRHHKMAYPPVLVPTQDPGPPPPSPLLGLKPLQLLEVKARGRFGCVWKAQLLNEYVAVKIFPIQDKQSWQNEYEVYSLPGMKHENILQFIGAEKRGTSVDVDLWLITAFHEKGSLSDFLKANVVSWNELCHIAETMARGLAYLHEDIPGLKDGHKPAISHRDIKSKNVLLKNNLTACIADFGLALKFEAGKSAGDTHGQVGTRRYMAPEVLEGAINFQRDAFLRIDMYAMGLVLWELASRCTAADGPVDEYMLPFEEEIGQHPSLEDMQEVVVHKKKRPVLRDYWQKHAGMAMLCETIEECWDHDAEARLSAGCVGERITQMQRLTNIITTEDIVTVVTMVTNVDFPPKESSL
MYLK2 (human), sequence (Q9H1R3 whole entry, looked up): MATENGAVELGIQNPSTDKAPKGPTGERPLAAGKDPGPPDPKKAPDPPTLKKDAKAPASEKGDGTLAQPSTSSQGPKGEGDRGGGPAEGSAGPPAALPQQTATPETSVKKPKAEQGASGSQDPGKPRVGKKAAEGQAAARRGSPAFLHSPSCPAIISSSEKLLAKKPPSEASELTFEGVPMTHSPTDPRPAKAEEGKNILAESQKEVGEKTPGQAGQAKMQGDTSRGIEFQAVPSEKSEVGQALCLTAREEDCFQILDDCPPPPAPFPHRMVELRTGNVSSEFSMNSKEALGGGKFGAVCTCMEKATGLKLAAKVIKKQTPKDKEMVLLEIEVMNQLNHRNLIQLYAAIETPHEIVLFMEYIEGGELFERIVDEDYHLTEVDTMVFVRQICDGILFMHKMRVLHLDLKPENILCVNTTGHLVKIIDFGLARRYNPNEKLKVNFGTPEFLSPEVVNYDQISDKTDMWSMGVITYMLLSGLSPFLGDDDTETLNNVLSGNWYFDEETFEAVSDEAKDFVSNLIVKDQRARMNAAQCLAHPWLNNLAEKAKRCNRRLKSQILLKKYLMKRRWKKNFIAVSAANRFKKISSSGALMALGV
PDGFRA (human), sequence (P16234 whole entry, looked up): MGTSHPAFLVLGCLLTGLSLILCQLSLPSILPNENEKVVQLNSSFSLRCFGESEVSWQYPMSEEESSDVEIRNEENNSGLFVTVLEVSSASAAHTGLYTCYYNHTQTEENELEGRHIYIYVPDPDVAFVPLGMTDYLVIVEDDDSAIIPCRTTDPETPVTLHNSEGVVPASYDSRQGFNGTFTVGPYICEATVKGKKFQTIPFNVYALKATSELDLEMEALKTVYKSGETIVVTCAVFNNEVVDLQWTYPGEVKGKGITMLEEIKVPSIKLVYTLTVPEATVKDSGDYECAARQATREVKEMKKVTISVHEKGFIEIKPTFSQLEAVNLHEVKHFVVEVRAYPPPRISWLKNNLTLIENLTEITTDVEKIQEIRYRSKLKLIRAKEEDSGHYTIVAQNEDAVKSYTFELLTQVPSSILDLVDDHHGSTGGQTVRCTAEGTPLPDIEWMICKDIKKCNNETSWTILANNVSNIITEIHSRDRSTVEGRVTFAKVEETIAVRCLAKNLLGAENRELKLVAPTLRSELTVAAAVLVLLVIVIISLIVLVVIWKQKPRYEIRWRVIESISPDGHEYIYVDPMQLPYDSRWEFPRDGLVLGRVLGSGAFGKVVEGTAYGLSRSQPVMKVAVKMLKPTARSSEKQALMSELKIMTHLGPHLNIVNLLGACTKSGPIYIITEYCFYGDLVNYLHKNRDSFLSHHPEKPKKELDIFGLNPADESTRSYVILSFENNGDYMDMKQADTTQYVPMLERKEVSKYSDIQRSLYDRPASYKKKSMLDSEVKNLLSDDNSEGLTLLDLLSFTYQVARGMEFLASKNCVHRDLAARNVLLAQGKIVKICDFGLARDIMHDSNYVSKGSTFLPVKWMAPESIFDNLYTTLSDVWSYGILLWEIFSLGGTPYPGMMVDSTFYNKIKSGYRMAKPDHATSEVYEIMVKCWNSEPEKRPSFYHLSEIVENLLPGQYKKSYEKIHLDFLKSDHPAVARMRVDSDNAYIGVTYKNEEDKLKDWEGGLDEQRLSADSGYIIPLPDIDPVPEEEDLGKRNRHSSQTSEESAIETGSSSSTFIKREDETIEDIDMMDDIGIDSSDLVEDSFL

Work on `N#Cc1ccc2ncnc(NCCc3ccc4ccccc4c3)c2c1` yielded a kinase still bound, per cent of control [1] of 100%, a kinase still bound, per cent of control [2] of 100% and a kinase still bound, per cent of control [3] of 100%. It also gave a kinase still bound, per cent of control [4] of 85%, a kinase still bound, per cent of control [5] of 100% and a kinase still bound, per cent of control [6] of 83%. The kinase still bound, per cent of control [7] was 96%, the kinase still bound, per cent of control [8] was 94% and the kinase still bound, per cent of control [9] was 100%. For the same compound, the kinase still bound, per cent of control [10] was 74%, the kinase still bound, per cent of control [11] was 59% and the kinase still bound, per cent of control [12] was 99%. The kinase still bound, per cent of control [13] was 92%, the kinase still bound, per cent of control [14] was 78% and the kinase still bound, per cent of control [15] was 81%. The kinase still bound, per cent of control [16] was 95%, the kinase still bound, per cent of control [17] was 91% and the kinase still bound, per cent of control [18] was 92%. The kinase still bound, per cent of control [19] was 98%, the kinase still bound, per cent of control [20] was 100% and the kinase still bound, per cent of control [21] was 94%. It also gave a kinase still bound, per cent of control [22] of 100%, a kinase still bound, per cent of control [23] of 100% and a kinase still bound, per cent of control [24] of 95%. The kinase still bound, per cent of control [25] was 70%, the kinase still bound, per cent of control [26] was 100% and the kinase still bound, per cent of control [27] was 100%. The kinase still bound, per cent of control [28] was 90%, the kinase still bound, per cent of control [29] was 85% and the kinase still bound, per cent of control [30] was 99%. It also gave a kinase still bound, per cent of control [31] of 85%, a kinase still bound, per cent of control [32] of 100% and a kinase still bound, per cent of control [33] of 96%. The kinase still bound, per cent of control [34] was 100%, the kinase still bound, per cent of control [35] was 96% and the kinase still bound, per cent of control [36] was 99%. For the same compound, the kinase still bound, per cent of control [37] was 100%, the kinase still bound, per cent of control [38] was 97% and the kinase still bound, per cent of control [39] was 100%. The kinase still bound, per cent of control [40] was 100%, the kinase still bound, per cent of control [41] was 91% and the kinase still bound, per cent of control [42] was 100%. It also gave a kinase still bound, per cent of control [43] of 93%.
